Results on 3 compounds are retold here after patent publication US5814612A, “Retinol derivatives and uses thereof” (priority 1992, dated 1998).

One series deals with B lymphocytes. Kind of series: Activity in B lymphocytes. Format: cell-based.
The next series in a line: Chemical stability of P3. Format: physicochemical.
A further series relates to 5/2 cells. The class given is in vitro ADME, human. As to the method: 5/2 cells (10^6 cells in 10 ml HB 101 medium) were incubated with all-trans-[^3 H] retinol (10 uCe/ml). After 24 hours, retinoids were extracted from the washed cell pellet and unlabeled marker retinoids were added. The crude extract was loaded on an analytical reversed-phase C-18 column. Retinoids were eluted with the shown linear gradient of water/methanol/chloroform. The flow rate was 0.5 ml/min. DPM were determined with an on line scintillation counter. Reference retinoids were the all-trans forms of 0: 3,4-didehydroretinoic acid, 1: all-trans-retinoic acid, 2: 3,4-didehydroretinol, 3: retinol, 4: retinyl linoleate, 5: retinyl oleate, 6: retinyl palmitate. Shaded area corresponds to P3. Cross-hatched area corresponds to P1.
Lymphoblastoid 5/2 cells grown in the presence of 10^-6 M retinol were spiked with ^3 H-labeled retinol. After 16 hours the cell pellet was delipidated according to the method of McLean et al. and separated on a reversed phase C-18 HPLC column (FIG. 7). […] Three peaks, P1, P2 and P3, could not be immediately identified. One peak eluting at 36-39 minutes (corresponding 83% methanol 7% water) provisionally called P3, but now known as 14HRR, was unusual because unlike P1 eluting at 31-34 minutes, its relative amount increased when the retinol concentration was lowered or when retinol was given to the cells bound to RBP. […] Since HeLa cells contain 14HRR, these cells were also used. 50 ml of packed HeLa cells (10^10 cells) yielded 25 OD348nmunits of pure P3 after the following sequence of steps: 1. Growth in the presence of 10^-5 M retinol; 2. Extraction of cell pellet according to McClean et al. (13); 3. Preparative C-18 HPLC column eluted with a water/methanol gradient; 4. semipreparative C18 HPLC column eluted with a water/acetonitrile gradient; 5. analytical C4 column eluted with a water/methanol gradient.

A further series has as its system thymocytes. The experiment in a line: Proliferation of Con A stimulated thymocytes in serum-free ITLB medium. Format: cell-based, BALB/c mouse. The following applies: 3×10^-6 M retinol, Con A 0.5 μg/ml. As to the method:
Purified thymocytes (5×10^5 cells/well) were stimulated by TCR crosslinking with immobilized anti-CD3e antibody (FIG. 15A) or 0.4 μg/ml Con A (FIG. 15B) in serum-free ITLB medium. The indicated amounts of retinoids were added either once at the beginning of the experiment (marked as "1×") or every 12 hours thereafter (marked as "6×"). DNA synthesis was measured after 72 hours by tritiated thymidine uptake as described.
Thymuses of 3 to 6-week-old BALB/c mice were teased in serum-free RPMI medium supplemented with 1% BSA, 10^-6 M linoleic acid and antibiotics. […] Cell viability was evaluated by trypan blue dye exclusion. To determine the extent of depletion of accessory cells, samples were stained with FITC-conjugated anti-Fc receptor antibody and analyzed by flow cytometry on a FACScan instrument (Becton Dickinson). No FcR-bearing cells were detected by this procedure.
Cells were cultured in serum-free medium, referred to as ITLB, containing RPMI 1640 supplemented with 8×10^-7 M insulin (5 μg/ml), 7×10^-8 M transferrin (5 μg/ml), 2×10^-6 M linoleic acid, 2×10^-6 M delipidated BSA (0.12 mg/ml), 2 mM L-glutamine, 1 mM sodium pyruvate and antibiotics. […] The optimal concentration for stimulation of T cells was determined for each batch of anti-CD3 mAb and Con A. The optimal range of Con A was particularly narrow in serum-free medium (0.5-0.2 μg/ml) and varied with the cell density used. […]

In another series the test system is Raji. The experiment in a line: Retinol metabolism, Raji. The class given is in vitro ADME, human. As to the method:
(§1) Legend: 2.5×10^6 cells were grown overnight in 5 ml RPMI/10% FBS. The FBS was preincubated at room temperature with 14.4 uCi [^3 H] retinol (NEN) for 4h. The cell pellet was washed twice with PBS. The retinoid were extracted according to MClean et al. 90 and separated on an analytical c18 reverse phase column according to FIG. 7. The DPM were determined using an on-line scintillation counter.

A further series concerns Hela. The experiment in a line: Retinol metabolism, Hela. Format: in vitro ADME, human. The procedure: as §1

In the case of `CC(C=CC=C(C)C(O)CO)=CC=C1C(C)=CCCC1(C)C` (centres unmarked) [14HRR, 14-hydroxy-4,14-retro-retinol], the “activity relative to all-trans retinol on a concentration basis” value in the series on B lymphocytes (B cells) was 10-30 fold. The “potency relative to retinol in preventing necrotic cell death” value with B lymphocytes (concentration basis) is given as 20-40 times. In “Chemical stability of P3”, the “chemical stability” value was “unstable in chloroform and does not survive an acid extraction step”.
As to `CC1=C(/C=C/C(C)=C/C=C/C(C)=C/C(=O)O)C(C)(C)CCC1` [all-trans retinoic acid], the “detection as metabolite of retinol” value with 5/2 cells is given as “not detectable”.
Turning to `CC1=C(/C=C/C(C)=C/C=C/C(C)=C/CO)C(C)(C)CCC1` [retinol, all-trans retinol], in the series on thymocytes, the “Con A stimulated thymocyte proliferation” value was “growing exponentially”. In the series on Raji (4°), the “Ester (% of taken up retinol)” value came out at 0%, the “P3 (% of taken up retinol)” value was determined as 0% and the Total cts. is given as 2.5 × 10^5 cts. For the same compound, in the series on Raji (37°), the “Ester (% of taken up retinol)” value turned out to be 14%, the “P3 (% of taken up retinol)” value is 3% and the Total cts. is 4.0 × 10^5 cts. Besides, in the series with Hela, the “Ester (% of taken up retinol)” value is reported as 20%, the “P3 (% of taken up retinol)” value amounted to 3% and the Total cts. was 1.0 × 10^5 cts.
